Test results as given in patent US20150212064A1, “DEGRANULATION INDICATOR AND METHODS OF USE THEREOF” (priority 2011, published 2015).
“Also recorded” adds a separate entry of the source.

Legend:
[1] = test system: PC12 chromaffin cells; details: cited from earlier work
[2] = test system: NK cell cortical actin filaments; details: cited from earlier work
[3] = test system: NK cell; details: cited from earlier work
[4] = test system: NK92 cells expressing pHlourin-LAMP1; assay: Live cell TIRFm of lytic granule motility and persistence in activated pHluorin-LAMP1 NK92 cells; type: cell-based, human; details: for pre-degranulation motility of granules: 10 μM LatA added after 10 minutes, vs DMSO control; for number / accumulation of granules at the TIRF plane of the activated NK IS: LatA-treated cells, not quantified
Experimental: For NK92 lytic granule motility studies, pHluorin-LAMP1 NK92 cells were suspended in dye free RPMI 10% FBS media at a concentration of 7.5×10^5 to 10^6 cells/ml and incubated with 100 nM LysoTracker® Red DND-99 (Invitrogen) at 37° C. for 30 minutes, washed, and resuspended in media. ΔT culture dishes (Bioptechs) were coated with […] anti-NKp30 and -CD18, incubated at 37° C. for 1 hour or 4 degrees overnight, washed with PBS, and pre-warmed with dye free RPMI 10% FBS media. NK92 cells were plated on ΔT culture dishes immediately prior to imaging, and temperature was maintained at 37° C. throughout the experiment using a ΔT culture dish heater and lid (Bioptechs).
Cells were imaged in a single z-plane 10-15 minutes after addition to imaging chambers through an APO N TIRFm, oil immersion 60×1.49 NA objective using an Olympus IX-81 spinning disk confocal microscope with a rear-mounted TIRF illuminator and a Hamamatsu EM CCD C9100 camera. Excitation was by 480 nm (Spectra-Physics) and 561 nm (Cobalt) diode lasers through a LMM5 laser combiner unit (Spectral Applied Research). Cell image sequences were captured in TIRF mode at the interface between the cell and the glass over 60-80 minutes at 6 frames per minute using Volocity® software (PerkinElmer). Where indicated, cells were incubated with 10 μM LatA (Sigma) following 10 minutes of pre-incubation in the imaging chamber.
For TIRFm analysis, image sequences were analyzed using Volocity® software (PerkinElmer). LysoTracker® Red and pHluorin positive events were identified and cropped in Volocity®. Object tracks were generated over time using the “track objects manually” function and the rectangular selection tool for each event; the track length, track velocity, displacement, and displacement rate of each lytic granule were measured for both LysoTracker® Red time points and pHluorin time points, and comparatively graphed on GraphPad Prism® Version 5.0 (GraphPad software). Overlays of lytic granule tracks were generated by the plotting of X and Y coordinate values from Volocity with GraphPad Prism® for both Lysotracker® Red and pHluorin. To measure the time persistence of LysoTracker® Red lytic granules within the TIRF field, the time of LysoTracker® Red emergence on the TIRF field was subtracted from the time of pHlourin appearance or LysoTracker® Red disappearance and multiplied by 60 to obtain time persistence in seconds.
For LatA experiments, granules with both Lysotracker Red and pHluorin traces were identified and cropped in Volocity®. Objects were identified using a threshold of 3 SD above the mean field fluorescence for each timepoint to account for photobleaching using the “Find Objects Using SD Intensity” function. Objects smaller than 0.032 μm^2 were excluded from further analysis. Tracks were then generated using the “Track Objects” feature using the “Shortest Path” tracking model, and the track length, track velocity, displacement, displacement rate, and time span of each lytic granule tabulated and graphed using GraphPad Prism® software Version 5.0.
The sum fluorescent intensity and area of each granule was also recorded at each timepoint. Using the initial appearance of pHluorin-LAMP1 as time zero, the average sum fluorescent intensity post-degranulation was calculated and graphed for lytic granules treated with DMSO vehicle control versus those treated with LatA. For area measurements, the borders of individual granules were defined as those above 3 SD.

[5] = test system: resting human NK cells; details: cited from earlier work
[6] = test system: NK-92 cells expressing pHluorin-LAMP1; assay: Flow cytometry of green fluorescence of NK-92 cells expressing pHluorin-LAMP1; type: cell-based, human; details: for pHluorin fluorescence: PMA 100 ng/mL and Ionomycin 1 μg/mL together for 30 minutes
Experimental: Flow cytometry was performed to verify pHluorin-LAMP1 expression. Cells were untreated or treated with phorbol myristate acetate (PMA, 100 ng/mL,Sigma) and Ionomycin (1 μg/mL, Sigma) for 30 minutes or Concanamycin A (CMA, 100 nM, Sigma) for 90 minutes and samples were run on a Becton Dickinson FACSCalibur™.

[7] = test system: NK-92 cells; assay: Degranulation assay (Granzyme A activity, BLT esterase) of NK-92 cells activated by immobilized antibody to NKp30 and CD18; type: cell-based, human; details: thapsigargin 1 μM, positive control
Experimental: Immulon 4HBX 96 well flat bottom plates (Thermo) were coated with murine IgG (BD), anti-human NKp30, anti-human CD18, or both anti-NKp30 and anti-CD18 at 5 μg/mL in PBS overnight at 4° C. Plates were washed twice with PBS and blocked for 1 hr at room temperature with R10 media. One×10^5 cells were added to wells and plates were spun at 1000 rpm for two minutes before incubation at 37° C. For the timecourse degranulation assay, supernatants from spontaneous and activated wells were harvested at indicated times. For inhibitor treatments, media containing inhibitor or vehicle (DMSO) was added at indicated times. Inhibitors used were jasplakinolide (1 μM, Calbiochem), latrunculin A (10 μM, Sigma), cytochalasin D (10 μM, Sigma), and thapsigargin (1 μM, Calbiochem). Supernatatants were harvested after 60 minutes. For total release, cells were lysed in 0.5% Nonidet P40 (Accurate Chemical and Scientific). […] Samples were incubated for 30 minutes at 37° C. and absorbance was measured immediately at 405 nm. Percent total release was measured by subtracting the spontaneous release value from activated release values (A-S) and the total release value (T-S), and then dividing (A-S) by (T-S).

[8] = test system: neutrophils; details: cited from earlier work
[9] = 10 μM LatA, 12-18 tracks, normalized to DMSO control

In the case of `C/C1=C/C(=O)O[C@@H]2C[C@@H](CC[C@H](C)/C=C\C=C\CC1)O[C@@](O)([C@@H]1CSC(=O)N1)C2` [LatA, latrunculin A], the “expulsion of granule contents” value [1] is listed as “more rapid expulsion of granule contents”, the “depolymerization of cortical actin” value [2] is listed as “rapidly depolymerizes; also recorded: completely depolymerizes cortical actin” and the cytotoxic function [3] is listed as “abrogates cytotoxic function”. The “pre-degranulation motility of granules” value [4] was “intact; also recorded: did not significantly affect granule movement prior to degranulation”, the “pre-degranulation motility of granules” value ([4]; listed as Latrunculin A) was “did not affect pre-exocytosis movement” and the “lytic granule total displacement” value [4, 9] was “no significant differences”. For the same compound, the “lytic granule track length” value [4, 9] was “no significant differences”, the lytic granule velocity [4, 9] was “no significant differences” and the “timespan of green fluorescence (persistence following exocytosis)” value ([4]; 10 μM LatA, control normalized to 1.0±0.56, p=0.0441) was 0.59±0.442. The “lifetime of red fluorescence (timespan pre-degranulation)” value ([4]; 10 μM LatA, control normalized to 1.0±0.87) was 1.1±0.61 AU, the “median time for 50% survival of granules following degranulation (Kaplan-Meier)” value ([4]; 10 μM LatA, control treated cells 28.8 minutes) was 13.7 min and the “area of granules post-degranulation” value ([4]; LatA vs DMSO, over 40 minutes p<0.0001, truncated at 20 minutes p=0.4438) was “slightly greater area”. The “sum fluorescent intensity (MFI*area) of granules post-degranulation” value ([4]; LatA vs DMSO, up to forty minutes post-degranulation, p<0.0001 Mann Whitney U test) was “significantly greater sum fluorescent intensity (MFI*area) of granules from DMSO treated cells”, the “number / accumulation of granules at the TIRF plane of the activated NK IS” value [4] was “no observable defect in the number of granules that reached the TIRF plane” and the “number / accumulation of granules at the TIRF plane of the activated NK IS” value ([4]; listed as Latrunculin A) was “gross accumulation of granules was not observed”.

In the case of `C/C1=C/C(=O)O[C@@H]2C[C@@H](CC[C@H](C)/C=C\CC1)O[C@@](O)([C@@H]1CSC(=O)N1)C2` [Latrunculin B], the “movement of granules at the plasma membrane / cortex” value [5] is given as “arrests those granules constitutively found at the plasma membrane” and the “numbers of granules at the plasma membrane” value [5] is given as “does not result in increased numbers of granules”.

With `CCCCCCCCCCCCCC(=O)O[C@@H]1[C@@H](C)[C@@]2(O)[C@@H](C=C(CO)C[C@]3(O)C(=O)C(C)=C[C@@H]23)[C@@H]2C(C)(C)[C@]12OC(C)=O` [PMA, phorbol myristate acetate] the pHluorin fluorescence [6] was “rapid increase in pHluorin fluorescence”.

For `C/C=C(/C)C(=O)O[C@H]1C(C)=C2[C@H]([C@@H]1OC(=O)CCCCCCC)[C@@](C)(OC(C)=O)C[C@H](OC(=O)CCC)[C@@]1(O)[C@H]2OC(=O)[C@@]1(C)O` [Thapsigargin, thapsigargin], the effect on degranulation [7] was “positive effect on degranulation”.

For `C/C=C/[C@H]1O[C@@](O)([C@@H](C)[C@H](O)[C@H](C)[C@H]2OC(=O)/C(OC)=C/C(C)=C/[C@@H](C)[C@@H](O)[C@@H](CC)[C@@H](O)[C@H](C)C/C(C)=C/C=C/[C@@H]2OC)C[C@@H](O[C@H]2C[C@@H](O)[C@H](OC(N)=O)[C@@H](C)O2)[C@@H]1C` [concanamycin A, Concanamycin A], the “green fluorescence measured by flow cytometry” value ([6]; Concanamycin A 100 nM for 90 minutes) was “robust increase in green fluorescence”.

In the case of `C=C1[C@@H](C)[C@H]2[C@H](Cc3ccccc3)NC(=O)[C@]23[C@H](OC(C)=O)/C=C/[C@@](C)(O)C(=O)[C@@H](C)C/C=C/[C@H]3[C@@H]1O` [cytochalasin D], the “accumulation of granules at the exocytic zone” value [8] is listed as “seems to promote the accumulation of granules” and the “movement of granules in the TIRF plane at the membrane” value [8] is listed as “does not prevent movement of granules”.

For `C[C@H](CCC(=O)O)C[C@H](C)C[C@H](C)C(=O)/C=C(\O)[C@H](C)C[C@H](C)C/C=C/[C@@H](C)[C@@H](O)[C@@H](C)[C@@H](O)C[C@@H]1CC[C@@](C)([C@H]2CC[C@@](C)([C@@H](C)O)O2)O1` [ionomycin, Ionomycin], the pHluorin fluorescence [6] was “rapid increase in pHluorin fluorescence”.

In the case of `COC(=O)Nc1nc2ccc(C(=O)c3cccs3)cc2[nH]1` [nocodazole], the “movement of granules at the plasma membrane / cortex” value [5] is listed as “arrests the movement of granules at the cortex”.
